Data as given in patent publication US10981926B2 (Janssen Pharmaceutica NV, priority 2016, dated 2021).
Where two headings read alike, the source gives them in different places.

Columns and labels:
Assay type in all cases: cell-based
[1] = biological target: T1, wild-type Androgen Receptor (AR-wt) (Homo sapiens (Human), UniProt P10275); assay: LNCaP-AR-wt ANT reporter assay (antagonist mode); conditions: for Emax: read-out: LNCaP-AR-wt ANT MAX % Inh
[2] = biological target: T1, wild-type Androgen Receptor (AR-wt); assay: LNCaP-AR-wt AG reporter assay (agonist mode); conditions: for Emax: read-out: LNCaP-AR-wt AG MAX % Stim
[3] = biological target: T2, F876L mutant Androgen Receptor (AR-F876L) (Homo sapiens (Human), UniProt P10275, F877L); assay: LNCaP-AR-F876L ANT reporter assay (antagonist mode); conditions: for Emax: read-out: LNCaP-AR-F876L ANT MAX % Inh
[4] = biological target: T2, F876L mutant Androgen Receptor (AR-F876L); assay: LNCaP-AR-F876L AG reporter assay (agonist mode); conditions: for Emax: read-out: LNCaP-AR-F876L AG MAX % Stim
[5] = antagonist mode, maximum % inhibition of R1881 control response over tested concentration range
[6] = antagonist mode, pIC50 = −Log10(IC50 in Molar), read-out: LNCaP-AR-wt ANT pIC50 (converted)
[7] = agonist mode, maximum % stimulation over tested concentration range
[8] = agonist mode, pEC50 = −Log10(EC50 in Molar), read-out: LNCaP-AR-wt AG pEC50 (converted)
[9] = antagonist mode, pIC50 = −Log10(IC50 in Molar), read-out: LNCaP-AR-F876L ANT pIC50 (converted)
[10] = agonist mode, pEC50 = −Log10(EC50 in Molar), read-out: LNCaP-AR-F876L AG pEC50 (converted)

T1 sequence (P10275 whole entry): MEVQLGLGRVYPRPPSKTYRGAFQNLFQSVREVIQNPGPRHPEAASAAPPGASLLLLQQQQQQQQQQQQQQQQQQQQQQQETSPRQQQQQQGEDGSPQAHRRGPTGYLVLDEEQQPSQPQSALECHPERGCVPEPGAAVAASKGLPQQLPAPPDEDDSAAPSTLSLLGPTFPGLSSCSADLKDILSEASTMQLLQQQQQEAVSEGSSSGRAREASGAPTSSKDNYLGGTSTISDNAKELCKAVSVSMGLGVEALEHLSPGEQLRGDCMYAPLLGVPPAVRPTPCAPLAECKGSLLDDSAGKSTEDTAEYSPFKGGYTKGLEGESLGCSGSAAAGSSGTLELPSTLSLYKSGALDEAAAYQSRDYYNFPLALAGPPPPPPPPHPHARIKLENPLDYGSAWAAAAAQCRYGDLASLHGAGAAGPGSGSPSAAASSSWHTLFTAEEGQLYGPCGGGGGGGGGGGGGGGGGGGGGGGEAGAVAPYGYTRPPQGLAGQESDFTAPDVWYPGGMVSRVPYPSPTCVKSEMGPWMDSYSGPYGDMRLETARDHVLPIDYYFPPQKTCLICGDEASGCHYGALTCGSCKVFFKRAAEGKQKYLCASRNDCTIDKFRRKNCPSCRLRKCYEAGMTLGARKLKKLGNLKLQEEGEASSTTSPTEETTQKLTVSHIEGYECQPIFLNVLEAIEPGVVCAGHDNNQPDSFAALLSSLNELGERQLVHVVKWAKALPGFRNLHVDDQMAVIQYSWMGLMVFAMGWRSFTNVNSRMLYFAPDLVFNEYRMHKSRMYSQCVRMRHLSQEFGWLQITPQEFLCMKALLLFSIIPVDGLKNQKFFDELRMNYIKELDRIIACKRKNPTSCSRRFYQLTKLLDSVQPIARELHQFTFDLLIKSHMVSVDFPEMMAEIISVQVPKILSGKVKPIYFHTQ
T2 sequence (P10275 whole entry F877L): as the sequence (P10275 whole entry) above, with F877L counted along it

Emax [1, 5] [%] | IC50 [1, 6] [nM] | Emax [2, 7] [%] | EC50 [2, 8] [nM] | Emax [3, 5] [%] | IC50 [3, 9] [nM] | Emax [4, 7] [%] | EC50 [4, 10] [nM] | Compound | IC50 ([1]; LNCaP-AR-wt ANT pIC50) [nM] | Emax [1] [%] | EC50 [2] [nM] | Emax [2] [%] | IC50 ([3]; LNCaP-AR-F876L ANT pIC50) [nM] | Emax [3] [%] | EC50 [4] [nM] | Emax [4] [%]
101 | 229 | 0.1 | > 15100 | 101 | 191 | 0.4 | > 15100 | CN1CCC12CC(Oc1ccc(N3C(=S)N(c4cnc(C#N)c(C(F)(F)F)c4)C(=O)C34CCC4)cn1)C2 (centres unmarked) [Cpd 193, 5-[8-[6-[(3-methyl-3-azaspiro[3.3]heptan-6-yl)oxy]-3-pyridyl]-5-oxo-7-thioxo-6,8-diazaspiro[3.4]octan-6-yl]-3-(trifluoromethyl)pyridine-2-carbonitrile] |  |  |  |  |  |  |  | 
100 | 589 | -0.2 | > 15100 | 99.9 | 437 | 0.2 | > 15100 | CN(C(=O)OC(C)(C)C)C1(COc2ccc(N3C(=S)N(c4cnc(C#N)c(C(F)(F)F)c4)C(=O)C34CCC4)cc2)COC1 [Cpd 196, tert-butyl N-[3-[[4-[6-[6-cyano-5-(trifluoromethyl)-3-pyridyl]-5-oxo-7-thioxo-6,8-diazaspiro[3.4]octan-8-yl]phenoxy]methyl]oxetan-3-yl]-N-methyl-carbamate] |  |  |  |  |  |  |  | 
 |  |  |  |  |  |  |  | CN(C)C1(c2ccc(N3C(=S)N(c4cnc(C#N)c(C(F)(F)F)c4)C(=O)C34CCC4)cc2)COC1 [Cpd 197, 5-(5-(4-(3-(dimethylamino)oxetan-3-yl)phenyl)-8-oxo-6-thioxo-5,7-diazaspiro[3.4]octan-7-yl)-3-(trifluoromethyl)picolinonitrile] | 1070 | 99.3 | > 15100 | 0.1 | 447 | 101 | > 15100 | 0.3
102 | 562 | 0.1 | > 15100 | 102 | 562 | 0.1 | > 15100 | CC(=O)N1CCC(n2cc3ccc(N4C(=S)N(c5cnc(C#N)c(C(F)(F)F)c5)C(=O)C45CCC5)cc3n2)CC1 [Cpd 198, 5-[8-[2-(1-acetyl-4-piperidyl)indazol-6-yl]-5-oxo-7-thioxo-6,8-diazaspiro[3.4]octan-6-yl]-3-(trifluoromethyl)pyridine-2-carbonitrile] |  |  |  |  |  |  |  | 
88.9 | 1620 | -0.2 | > 15100 | 102 | 1510 | 0.9 | > 15100 | CN1CCC(n2cc3ccc(N4C(=S)N(c5cnc(C#N)c(C(F)(F)F)c5)C(=O)C45CCC5)cc3n2)CC1 [Cpd 199, 5-[8-[2-(1-methyl-4-piperidyl)indazol-6-yl]-5-oxo-7-thioxo-6,8-diazaspiro[3.4]octan-6-yl]-3-(trifluoromethyl)pyridine-2-carbonitrile] |  |  |  |  |  |  |  | 
99.6 | 708 | 0.4 | > 15100 | 99.1 | 794 | 0.5 | > 15100 | CN1CCC[C@@H](CNC(=O)c2ccc(N3C(=S)N(c4cnc(C#N)c(C(F)(F)F)c4)C(=O)C34CCC4)cc2F)C1 [Cpd 200, 4-[6-[6-cyano-5-(trifluoromethyl)-3-pyridyl]-5-oxo-7-thioxo-6,8-diazaspiro[3.4]octan-8-yl]-2-fluoro-N-[[(3S)-1-methyl-3-piperidyl]methyl]benzamide] |  |  |  |  |  |  |  | 
101 | 355 | -0.3 | > 15100 | 101 | 214 | 0 | > 15100 | CN1CCC(CNC(=O)c2ccc(N3C(=S)N(c4cnc(C#N)c(C(F)(F)F)c4)C(=O)C34CCC4)cc2F)CC1 [Cpd 201, 4-[6-[6-cyano-5-(trifluoromethyl)-3-pyridyl]-5-oxo-7-thioxo-6,8-diazaspiro[3.4]octan-8-yl]-2-fluoro-N-[(1-methyl-4-piperidyl)methyl]benzamide] |  |  |  |  |  |  |  | 
102 | 1100 | -0.1 | > 15100 | 101 | 603 | 0 | > 15100 | N#Cc1ncc(N2C(=O)C3(CCC3)N(c3ccc(C(=O)NC[C@@H]4CCCNC4)c(F)c3)C2=S)cc1C(F)(F)F [Cpd 202, 4-[6-[6-cyano-5-(trifluoromethyl)-3-pyridyl]-5-oxo-7-thioxo-6,8-diazaspiro[3.4]octan-8-yl]-2-fluoro-N-[[(3R)-3-piperidyl]methyl]benzamide] |  |  |  |  |  |  |  | 
102 | 891 | -0.1 | > 15100 | 100 | 562 | 0 | > 15100 | CN1CCC[C@H](CNC(=O)c2ccc(N3C(=S)N(c4cnc(C#N)c(C(F)(F)F)c4)C(=O)C34CCC4)cc2F)C1 [Cpd 203, 4-[6-[6-cyano-5-(trifluoromethyl)-3-pyridyl]-5-oxo-7-thioxo-6,8-diazaspiro[3.4]octan-8-yl]-2-fluoro-N-[[(3R)-1-methyl-3-piperidyl]methyl]benzamide] |  |  |  |  |  |  |  | 
102 | 2450 | 0.1 | > 15100 | 99.7 | 1950 | 0 | > 15100 | N#Cc1ncc(N2C(=O)C3(CCC3)N(c3ccc(C(=O)NC[C@H]4CCCNC4)c(F)c3)C2=S)cc1C(F)(F)F [Cpd 204, 4-[6-[6-cyano-5-(trifluoromethyl)-3-pyridyl]-5-oxo-7-thioxo-6,8-diazaspiro[3.4]octan-8-yl]-2-fluoro-N-[[(3S)-3-piperidyl]methyl]benzamide] |  |  |  |  |  |  |  | 
101 | 1100 | -0.1 | > 15100 | 100 | 708 | 0.1 | > 15100 | CN1CC[C@@H](CNC(=O)c2ccc(N3C(=S)N(c4cnc(C#N)c(C(F)(F)F)c4)C(=O)C34CCC4)cc2F)C1 [Cpd 205, 4-[6-[6-cyano-5-(trifluoromethyl)-3-pyridyl]-5-oxo-7-thioxo-6,8-diazaspiro[3.4]octan-8-yl]-2-fluoro-N-[[(3S)-1-methylpyrrolidin-3-yl]methyl]benzamide] |  |  |  |  |  |  |  | 
101 | 851 | 0.1 | > 15100 | 99.3 | 617 | 0.1 | > 15100 | CN1CC[C@H](CNC(=O)c2ccc(N3C(=S)N(c4cnc(C#N)c(C(F)(F)F)c4)C(=O)C34CCC4)cc2)C1 [Cpd 206, 4-[6-[6-cyano-5-(trifluoromethyl)-3-pyridyl]-5-oxo-7-thioxo-6,8-diazaspiro[3.4]octan-8-yl]-N-[[(3R)-1-methylpyrrolidin-3-yl]methyl]benzamide] |  |  |  |  |  |  |  | 
103 | 871 | 0 | > 15100 | 101 | 1020 | 0 | > 15100 | CN(C)C1(COc2ccc(N3C(=S)N(c4cnc(C#N)c(C(F)(F)F)c4)C(=O)C34CCC4)cc2)COC1 [Cpd 208, 5-[8-[4-[[3-(dimethylamino)oxetan-3-yl]methoxy]phenyl]-5-oxo-7-thioxo-6,8-diazaspiro[3.4]octan-6-yl]-3-(trifluoromethyl)pyridine-2-carbonitrile] |  |  |  |  |  |  |  | 
99 | 457 | -0.1 | > 15100 | 100 | 417 | 0 | > 15100 | CN1CCC(CN(C)C(=O)c2ccc(N3C(=S)N(c4cnc(C#N)c(C(F)(F)F)c4)C(=O)C34CCC4)cc2)CC1 [Cpd 209, 4-[6-[6-cyano-5-(trifluoromethyl)-3-pyridyl]-5-oxo-7-thioxo-6,8-diazaspiro[3.4]octan-8-yl]-N-methyl-N-[(1-methyl-4-piperidyl)methyl]benzamide] |  |  |  |  |  |  |  | 
102 | 1170 | 0.1 | > 15100 | 100 | 1100 | 0.1 | > 15100 | CN1CCC(C)(Oc2ccc(N3C(=S)N(c4cnc(C#N)c(C(F)(F)F)c4)C(=O)C34CCC4)cn2)CC1 [Cpd 210, 5-[8-[6-[(1,4-dimethyl-4-piperidyl)oxy]-3-pyridyl]-5-oxo-7-thioxo-6,8-diazaspiro[3.4]octan-6-yl]-3-(trifluoromethyl)pyridine-2-carbonitrile] |  |  |  |  |  |  |  | 
101 | 1050 | 0.5 | > 15100 | 101 | 363 | 0.1 | > 15100 | COc1cc(N2C(=O)C3(CCC3)N(c3ccc4c(cnn4C4CCNCC4)c3)C2=S)cnc1C#N [Cpd 211, 3-methoxy-5-[5-oxo-8-[1-(4-piperidyl)indazol-5-yl]-7-thioxo-6,8-diazaspiro[3.4]octan-6-yl]pyridine-2-carbonitrile] |  |  |  |  |  |  |  | 
